Reference: patent US11000033B2, “Ketone or oxime compound, and herbicide” (NISSAN CHEMICAL CORPORATION, priority 2014, dated 2021)

Columns and labels:
Type in all cases: in vivo
soybean = test: Test Example 5: effect on crop by foliage application, plastic box (symbol d); conditions: 320 g/ha, 3 weeks after application
In short: (§1)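 Plants were raised from seed in a greenhouse (25° C. to 30° C.) after sowing in a plastic box of sterilized diluvial soil.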

[1] = test system: Echinochloa crus-galli var. crus-galli; test: Test Example 5: herbicidal effect by foliage application, plastic box (symbol H); conditions: 320 g/ha, 3 weeks after application
In short: (§2)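 Visual herbicidal score, taken three weeks post-application, of seedlings sprayed on the foliage with water-diluted emulsion at a predetermined amount; plants were 14 days old, greenhouse-raised at 25° C. to 30° C.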

Apera spica-venti = test: Test Example 5: herbicidal effect by foliage application, plastic box (symbol L); conditions: 320 g/ha, 3 weeks after application
In short: as §2

Chenopodium album = test: Test Example 5: herbicidal effect by foliage application, plastic box (symbol O); conditions: 320 g/ha, 3 weeks after application
In short: as §2

Amaranthus retroflexus = test: Test Example 5: herbicidal effect by foliage application, plastic box (symbol N); conditions: 320 g/ha, 3 weeks after application
In short: as §2

Alopecurus myosuroides [2] = test: Test Example 4: herbicidal effect by soil treatment (symbol J); conditions: application herbicide amount 320 g/ha
In short: (§3)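 Seeds were sown in sterilized diluvial soil, covered with about 1.5 cm of soil, and the soil surface was sprayed with a water-diluted emulsion of the compound at a predetermined rate. Plants grew in a greenhouse at 25° C. to 30° C.; effects were scored visually 3 weeks after application.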

Galium spurium = test: Test Example 4: herbicidal effect by soil treatment (symbol Q); conditions: application herbicide amount 320 g/ha
In short: as §3

Alopecurus myosuroides [3] = test: Test Example 5: herbicidal effect by foliage application, plastic box (symbol J); conditions: 320 g/ha, 3 weeks after application
In short: as §2

transplanted rice plant = test: Test Example 1: effect on crop, application before weed generation in submerged conditions (symbol a); conditions: application herbicide amount 320 g/ha
In short: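 Alluvial soil pots flooded to 4 cm water, sown with Echinochloa oryzacola, Scirpus juncoides and Monochoria vaginalis, then transplanted with 2.5 leaf stage rice seedlings; pre-emergence application. Greenhouse 25° C. to 30° C.; scored 0–5 by herbicidal ratio 3 weeks after application.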

Veronica persica = test: Test Example 5: herbicidal effect by foliage application, plastic box (symbol R); conditions: 320 g/ha, 3 weeks after application
In short: as §2

Lolium multiflorum Lam. = test: Test Example 5: herbicidal effect by foliage application, plastic box (symbol K); conditions: 320 g/ha, 3 weeks after application
In short: as §2

Stellaria media = test: Test Example 4: herbicidal effect by soil treatment (symbol P); conditions: application herbicide amount 320 g/ha
In short: as §3

[4] = test system: Echinochloa crus-galli var. crus-galli; test: Test Example 3: herbicidal effect by foliage application, Wagner pot (symbol H); conditions: application herbicide amount 320 g/ha
In short: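 The compound, formulated as an emulsion and diluted with water to a predetermined rate, is applied uniformly to leaves of two-week-old seedlings growing in submerged alluvial soil at 25–30 °C. Rice is included. Each plant is assessed 3 weeks later using defined criteria.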

corn [5] = test: Test Example 4: effect on crop by soil treatment (symbol c); conditions: application herbicide amount 320 g/ha
In short: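 Greenhouse culture at 25° C. to 30° C. followed sowing of seed in spots on sterilized diluvial soil with a soil cover close to 1.5 cm thick.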

corn [6] = test: Test Example 5: effect on crop by foliage application, plastic box (symbol c); conditions: 320 g/ha, 3 weeks after application
In short: as §1

Abutilon theophrasti = test: Test Example 4: herbicidal effect by soil treatment (symbol M); conditions: application herbicide amount 320 g/ha
In short: as §3

CON=C(C)CC1CC(O)=C(c2c(C)cc(-c3ccc(OC(F)(F)F)cc3)cc2C)C1=O (mixture of isomers) [6-056]
d: soybean, effect on crop (criteria of Test Example 1) (soybean): 0 (Herbicidal ratio of 5% or lower (almost no effect)) | H: Echinochloa crus-galli var. crus-galli, herbicidal effect (criteria of Test Example 1) [1]: 4 (Herbicidal ratio of 70% or higher and lower than 90%) | L: Apera spica-venti, herbicidal effect (criteria of Test Example 1) (Apera spica-venti): 3 (Herbicidal ratio of 40% or higher and lower than 70%) | O: Chenopodium album, herbicidal effect (criteria of Test Example 1) (Chenopodium album): 3 (Herbicidal ratio of 40% or higher and lower than 70%) | N: Amaranthus retroflexus, herbicidal effect (criteria of Test Example 1) (Amaranthus retroflexus): 0 (Herbicidal ratio of 5% or lower (almost no effect)) | J: Alopecurus myosuroides, herbicidal effect grade (Alopecurus myosuroides [2]): 0 (Herbicidal ratio of 5% or lower (almost no effect)) | Q: Galium spurium, herbicidal effect grade (Galium spurium): 0 (Herbicidal ratio of 5% or lower (almost no effect)) | J: Alopecurus myosuroides, herbicidal effect (criteria of Test Example 1) (Alopecurus myosuroides [3]): 3 (Herbicidal ratio of 40% or higher and lower than 70%) | Effect grade on crop, a: transplanted rice plant (transplanted rice plant): 0 (Herbicidal ratio of 5% or lower (almost no effect)) | R: Veronica persica, herbicidal effect (criteria of Test Example 1) (Veronica persica): 0 (Herbicidal ratio of 5% or lower (almost no effect)) | K: Lolium multiflorum Lam., herbicidal effect (criteria of Test Example 1) (Lolium multiflorum Lam.): 4 (Herbicidal ratio of 70% or higher and lower than 90%) | P: Stellaria media, herbicidal effect grade (Stellaria media): 0 (Herbicidal ratio of 5% or lower (almost no effect)) | herbicidal effect on H (Echinochloa crus-galli var. crus-galli), grade 0-5 [4]: 4 (Herbicidal ratio of 70% or higher and lower than 90%) | c: corn, effect on crop grade (corn [5]): 0 (Herbicidal ratio of 5% or lower (almost no effect)) | c: corn, effect on crop (criteria of Test Example 1) (corn [6]): 1 (Herbicidal ratio of 5% or higher and lower than 20%) | M: Abutilon theophrasti, herbicidal effect grade (Abutilon theophrasti): 0 (Herbicidal ratio of 5% or lower (almost no effect))

CON=C(C)CC1CC(OC(=O)N2CCOCC2)=C(c2c(C)cc(-c3ccc(Cl)cc3)cc2C)C1=O (mixture of isomers) [6-062]
d: soybean, effect on crop (criteria of Test Example 1) (soybean): 0 (Herbicidal ratio of 5% or lower (almost no effect)) | H: Echinochloa crus-galli var. crus-galli, herbicidal effect (criteria of Test Example 1) [1]: 5 (Herbicidal ratio of 90% or more (almost completely withered)) | L: Apera spica-venti, herbicidal effect (criteria of Test Example 1) (Apera spica-venti): 5 (Herbicidal ratio of 90% or more (almost completely withered)) | N: Amaranthus retroflexus, herbicidal effect (criteria of Test Example 1) (Amaranthus retroflexus): 1 (Herbicidal ratio of 5% or higher and lower than 20%) | J: Alopecurus myosuroides, herbicidal effect grade (Alopecurus myosuroides [2]): 4 (Herbicidal ratio of 70% or higher and lower than 90%) | Q: Galium spurium, herbicidal effect grade (Galium spurium): 0 (Herbicidal ratio of 5% or lower (almost no effect)) | J: Alopecurus myosuroides, herbicidal effect (criteria of Test Example 1) (Alopecurus myosuroides [3]): 5 (Herbicidal ratio of 90% or more (almost completely withered)) | Effect grade on crop, a: transplanted rice plant (transplanted rice plant): 5 (Herbicidal ratio of 90% or more (almost completely withered)) | R: Veronica persica, herbicidal effect (criteria of Test Example 1) (Veronica persica): 5 (Herbicidal ratio of 90% or more (almost completely withered)) | K: Lolium multiflorum Lam., herbicidal effect (criteria of Test Example 1) (Lolium multiflorum Lam.): 4 (Herbicidal ratio of 70% or higher and lower than 90%) | P: Stellaria media, herbicidal effect grade (Stellaria media): 3 (Herbicidal ratio of 40% or higher and lower than 70%) | herbicidal effect on H (Echinochloa crus-galli var. crus-galli), grade 0-5 [4]: 5 (Herbicidal ratio of 90% or more (almost completely withered)) | c: corn, effect on crop grade (corn [5]): 0 (Herbicidal ratio of 5% or lower (almost no effect)) | c: corn, effect on crop (criteria of Test Example 1) (corn [6]): 5 (Herbicidal ratio of 90% or more (almost completely withered)) | M: Abutilon theophrasti, herbicidal effect grade (Abutilon theophrasti): 0 (Herbicidal ratio of 5% or lower (almost no effect))

CON=C(C)C(C(C)=NOC)C1CC(O)=C(c2c(C)cc(C)cc2C)C1=O (centres unmarked) [1-021]
d: soybean, effect on crop grade (soybean): 0 (Herbicidal ratio of 5% or lower (almost no effect)) | H: Echinochloa crus-galli var. crus-galli, herbicidal effect grade [1]: 3 (Herbicidal ratio of 40% or higher and lower than 70%) | L: Apera spica-venti, herbicidal effect grade (Apera spica-venti): 4 (Herbicidal ratio of 70% or higher and lower than 90%) | N: Amaranthus retroflexus, herbicidal effect grade (Amaranthus retroflexus): 0 (Herbicidal ratio of 5% or lower (almost no effect)) | J (Alopecurus myosuroides) herbicidal effect grade (Alopecurus myosuroides [2]): 0 (Herbicidal ratio of 5% or lower (almost no effect)) | Q (Galium spurium) herbicidal effect grade (Galium spurium): 0 (Herbicidal ratio of 5% or lower (almost no effect)) | J: Alopecurus myosuroides, herbicidal effect grade (Alopecurus myosuroides [3]): 3 (Herbicidal ratio of 40% or higher and lower than 70%) | Effect grade on crop, a: transplanted rice plant (transplanted rice plant): 0 (Herbicidal ratio of 5% or lower (almost no effect)) | R: Veronica persica, herbicidal effect grade (Veronica persica): 0 (Herbicidal ratio of 5% or lower (almost no effect)) | K: Lolium multiflorum Lam., herbicidal effect grade (Lolium multiflorum Lam.): 4 (Herbicidal ratio of 70% or higher and lower than 90%) | P (Stellaria media) herbicidal effect grade (Stellaria media): 0 (Herbicidal ratio of 5% or lower (almost no effect)) | herbicidal effect on H (Echinochloa crus-galli var. crus-galli), grade 0-5 [4]: 2 (Herbicidal ratio of 20% or higher and lower than 40%) | c (corn) effect on crop grade (corn [5]): 0 (Herbicidal ratio of 5% or lower (almost no effect)) | c: corn, effect on crop grade (corn [6]): 0 (Herbicidal ratio of 5% or lower (almost no effect)) | M (Abutilon theophrasti) herbicidal effect grade (Abutilon theophrasti): 0 (Herbicidal ratio of 5% or lower (almost no effect))

CON=C(C)CC1CC(OC(=O)N2CCOCC2)=C(c2c(C)cc(-c3ccc(F)c(Cl)c3)cc2C)C1=O (centres unmarked) [6-093]
d: soybean, effect on crop (criteria of Test Example 1) (soybean): 2 (Herbicidal ratio of 20% or higher and lower than 40%) | H: Echinochloa crus-galli var. crus-galli, herbicidal effect (criteria of Test Example 1) [1]: 5 (Herbicidal ratio of 90% or more (almost completely withered)) | L: Apera spica-venti, herbicidal effect (criteria of Test Example 1) (Apera spica-venti): 5 (Herbicidal ratio of 90% or more (almost completely withered)) | O: Chenopodium album, herbicidal effect (criteria of Test Example 1) (Chenopodium album): 5 (Herbicidal ratio of 90% or more (almost completely withered)) | N: Amaranthus retroflexus, herbicidal effect (criteria of Test Example 1) (Amaranthus retroflexus): 3 (Herbicidal ratio of 40% or higher and lower than 70%) | Herbicidal effect grade, J: Alopecurus myosuroides (Alopecurus myosuroides [2]): 3 (Herbicidal ratio of 40% or higher and lower than 70%) | Herbicidal effect grade, Q: Galium spurium (Galium spurium): 0 (Herbicidal ratio of 5% or lower (almost no effect)) | J: Alopecurus myosuroides, herbicidal effect (criteria of Test Example 1) (Alopecurus myosuroides [3]): 5 (Herbicidal ratio of 90% or more (almost completely withered)) | Effect grade on crop, a: transplanted rice plant (transplanted rice plant): 5 (Herbicidal ratio of 90% or more (almost completely withered)) | R: Veronica persica, herbicidal effect (criteria of Test Example 1) (Veronica persica): 5 (Herbicidal ratio of 90% or more (almost completely withered)) | K: Lolium multiflorum Lam., herbicidal effect (criteria of Test Example 1) (Lolium multiflorum Lam.): 5 (Herbicidal ratio of 90% or more (almost completely withered)) | Herbicidal effect grade, P: Stellaria media (Stellaria media): 5 (Herbicidal ratio of 90% or more (almost completely withered)) | herbicidal effect on H (Echinochloa crus-galli var. crus-galli), grade 0-5 [4]: 5 (Herbicidal ratio of 90% or more (almost completely withered)) | Effect on crop grade, c: corn (corn [5]): 0 (Herbicidal ratio of 5% or lower (almost no effect)) | c: corn, effect on crop (criteria of Test Example 1) (corn [6]): 5 (Herbicidal ratio of 90% or more (almost completely withered)) | Herbicidal effect grade, M: Abutilon theophrasti (Abutilon theophrasti): 0 (Herbicidal ratio of 5% or lower (almost no effect))
